Experiment [1] relates to oral pathogens. The conditions noted are these: against oral pathogens; cited from earlier work.
The nature of experiment [2]: Peptide binding to titanium implant discs (percent surface coverage by fluorescence imaging). The conditions noted are these: FITC-labeled peptide, up to 6× theoretical footprint concentration, two minutes at 37° C., washed. The protocol:
Titanium implant disc functionalization with bifunctional peptides was accomplished by incubating 100 μL of a specified fold concentration of the theoretical “footprint” concentration onto clean, sterile discs for different time periods at 37° C. for 2 minutes. Following incubation, the discs were transferred to a sterile well in a 24-well plate containing 500 μL of DI H2O and washed multiple times to remove unbound peptide. The discs were transferred to a clean glass microscope slide for imaging using a fluorescent microscope. All experiments were repeated a minimum of three times and images were recorded at 10× magnification.
A custom MatLab script was developed to determine the percent surface coverage of fluorescently labeled bifunctional peptides on the implant disc surface. The color fluorescent images were read into MatLab using the imread function. The images were converted to black and white and the total number of black and white pixels quantitated. […]
The theoretical footprint concentration of each bifunctional peptide with a multiple of the binding concentration up to 6× was determined to result in near 100% surface coverage after incubation with a titanium implant disc for only two minutes at 37° C. […] The fluorescent images were then analyzed using a MATLAB script to determine the percentage of the implant disc covered by the bifunctional peptides. […]

A short description of experiment [3]: Serum competition binding assay with BSA on titanium implant discs. The conditions noted are these: presence of 0.01% BSA, 2 minutes at 37° C. An excerpt:
(§1) A custom MatLab script was developed to determine the percent surface coverage of fluorescently labeled bifunctional peptides on the implant disc surface. The color fluorescent images were read into MatLab using the imread function. The images were converted to black and white and the total number of black and white pixels quantitated. The number of white pixels corresponding to the fluorescently labeled peptides was divided by the total number of pixels to determine the percent surface coverage.
Prior to functionalization of sterile titanium implant discs, a solution of BSA and the bifunctional peptide was made in a sterile centrifuge tube. In a sterile 24 well plate, 100 μL of the BSA/bifunctional peptide solution was pipetted onto a titanium implant disc and incubated at 37° C. for 2 minutes. […]
The bifunctional peptide film could be applied to a new dental implant prior to implantation and subsequently during recall appointments for treatment to previously placed implants. […] Thus, the ability of the peptide film to functionalize the implant surface in the presence of serum proteins was determined by pre-mixing the peptide with varying concentrations of bovine serum albumin (BSA) followed by incubating the mixture on the titanium disc for 2 minutes at 37° C. […]

Experiment [4] in a line: Peptide film coverage on implant discs after S. mutans challenge. Conditions: S. mutans challenge for 24 hours, FITC-labeled peptide.
Excerpt: as §1
Streptococcus mutans bacteria (ATCC 700610) were cultured according to an ATCC protocol. Frozen stocks were streak plated on agar and incubated for 24 hours at 37° C. in atmosphere with 5% CO2. […]
Following the functionalization of titanium discs, they were transferred to a sterile well in a 24-well plate and 400 μL of S. mutans bacteria at a concentration of 10^3 CFU/mL was added to the wells containing the discs and incubated for 24 hours at 37° C. in atmosphere with 5% CO2. […] Experiments were repeated in triplicate and images were recorded at 10× magnification.
The binding and antimicrobial domain activities were evaluated by challenging the bifunctional peptide film applied to titanium implant discs with S. mutans bacteria for 24 hours. […]

Experiment [5] concerns S. mutans. The experiment can be described thus: Propidium iodide staining of dead S. mutans bacteria on functionalized implant discs. The experiment is classed as cell-based, Streptococcus mutans. The conditions noted are these: discs functionalized 2 minutes at 37° C., S. mutans challenge 24 hours. On the procedure:
Streptococcus mutans bacteria (ATCC 700610) were cultured according to an ATCC protocol. Frozen stocks were streak plated on agar and incubated for 24 hours at 37° C. in atmosphere with 5% CO2. A single bacterial colony was used to inoculate 5 mL of Brain Heart Infusion (BHI) broth in a sterile 50 mL conical tube and incubated overnight in the same conditions. Following incubation, 1 mL of culture was added to 9 mL of fresh media and grown to mid-log phase with a final concentration of 10^5 CFU/mL.
Following the functionalization of titanium discs, they were transferred to a sterile well in a 24-well plate and 400 μL of S. mutans bacteria at a concentration of 10^3 CFU/mL was added to the wells containing the discs and incubated for 24 hours at 37° C. in atmosphere with 5% CO2. Following incubation, discs were imaged with a fluorescent microscope to visualize FTIC-labeled bifunctional peptides on the disc surface after bacterial challenge. The dead bacteria were stained with propidium iodide and imaged using a fluorescent microscope. Experiments were repeated in triplicate and images were recorded at 10× magnification.
The antimicrobial functional efficacy of TiBP-AMPA compared to TiBP-GL13K supported the design prediction. […] Representative fluorescent images and quantification of three replicate experiments are depicted in FIGS. 8A and 8B, respectively.

As to “GKIIKLKASLKLL [GL13K, cationic amphipathic antimicrobial peptide domain]”, in experiment [1], the MIC entry is listed as “low”.

On to “RPRENRGRERGLGSGGGGKIIKLKASLKLL [TiBP-GL13K, comparative bifunctional peptide: TiBP, GSGGG spacer, GL13K antimicrobial domain]”, for which the “surface coverage (initial binding)” value in experiment [2] was 96%. The “surface coverage in competition with BSA” value in experiment [3] stood at 73%. Besides, in experiment [4], the “surface coverage after bacterial challenge” value was 60%. The “dead bacteria coverage (PI staining)” value in experiment [5] worked out at 10%.

As to “KWKLWKKIEKWGQGIGAVLKWLTTW [AMPA, cationic antimicrobial peptide domain]”, the MIC entry in experiment [1] is “low”.

With “RPRENRGRERGLGSGGGKWKLWKKIEKWGQGIGAVLKWLTTW [TiBP-AMPA]”, the “surface coverage (initial binding)” value in experiment [2] amounted to 99%. Besides, the “surface coverage in competition with BSA” value in experiment [3] is 80%. In addition, the “surface coverage after bacterial challenge” value in experiment [4] worked out at 84%. The “dead bacteria coverage (PI staining)” value in experiment [5] is given as 46%.
